Values joined by “and” are separate entries in the source; they are usually repeats but may differ in a detail not shown here. Equal values may be shown once. Where a name gives a salt, the structure may show the parent alone. Read-outs that look alike come from different tables or passages of the source.
Columns and labels:
[1] = test system: Salmonella typhimurium TA 1537; settings: TA1537; for Positive control, number of back mutation, single plates: dihydrochloride
Procedure: (§1) A test was carried out in accordance with the “Standard of Mutagenicity Tests Using Microorganisms” (Ministry of Labor Notification No. 77, 1988) (partial revision by Ministry of Labor Notification No. 67, 1997) and “Regarding the Tests Concerning Novel Chemical Substances and the like” (dated Nov. 21, 2003: Yaku-Shoku-Hatsu No. 1121002, 2003.11.13 Sei-Kyoku, No. 2, Kan-Ho-Ki-Hatsu No. 031121002). To 0.1 ml of a solution prepared by dissolving 5% (w/v) of 5-aminolevulinic acid phosphate in distilled water (Wako Pure Chemical Industries), 0.5 ml of 0.1 M sodium-phosphate buffer (pH 7.4) (0.5 ml S9 mix in the case of metabolism activation test) was added, and 0.1 ml of each test strain suspension (5 strains of histidine-less Salmonella typhimurium TA 100, TA 98, TA 1535 and TA 1537 and tryptophan-less Escherichia coli WP2 uvrA were used (Japan Bioassay Research Center)) was further added thereto, followed by pre-incubation at 37° C. for 20 minutes while shaking. After completion of the culturing, 2.0 ml of top agar kept at 45° C. in advance was added thereto and layered on a minimum glucose agar plate medium. In this case, 2 plates were arranged for each dosage. However, 3 plates were arranged for a solvent control (negative control). […] In the measurement, an inner area of about 80 mm in diameter of a plate of 86 mm in diameter (84 mm in inner diameter) was measured using an automatic colony analyzer (CA-11: manufactured by System Science), and calculated by carrying out area correction and counting loss correction using a personal computer. However, since reliability of the automatic colony analyzer is reduced when the number of colonies is 1,500 or more, 5 points in the plate were manually measured under the stereoscopic microscope to carry out area correction of the average value. A dosage setting test was carried out on 7 dosages diluted at a common ratio of 4, using a dosage of 5,000 μg/plate as the maximum which is the maximum dosage defined by the guideline.

[2] = test system: spiderwort Commelina communis; test: Plant activating effect, foliar application, spiderwort; assay type: in vivo; settings: 21 days, 12 plants
Procedure: A total of 12 pots, in which 600 g of volcanic ash soil was packed in a porcelain pot of 12 cm in inner diameter, and 1 plant of a spiderwort Commelina communis grown to a height of 15 cm was planted in 1 pot, were prepared and placed under a constant temperature environment of 20° C., and foliar application treatment was carried out once a day using the following application liquids. Conditions of the leaves 21 days thereafter were observed.

[3] = test system: Salmonella typhimurium TA 100; test: Back mutation test, TA100; assay type: cell-based
Procedure: (§2) A test was carried out in accordance with the “Standard of Mutagenicity Tests Using Microorganisms” (Ministry of Labor Notification No. 77, 1988) (partial revision by Ministry of Labor Notification No. 67, 1997) and “Regarding the Tests Concerning Novel Chemical Substances and the like” (dated Nov. 21, 2003: Yaku-Shoku-Hatsu No. 1121002, 2003.11.13 Sei-Kyoku, No. 2, Kan-Ho-Ki-Hatsu No. 031121002). To 0.1 ml of a solution prepared by dissolving 5% (w/v) of 5-aminolevulinic acid phosphate in distilled water (Wako Pure Chemical Industries), 0.5 ml of 0.1 M sodium-phosphate buffer (pH 7.4) (0.5 ml S9 mix in the case of metabolism activation test) was added, and 0.1 ml of each test strain suspension (5 strains of histidine-less Salmonella typhimurium TA 100, TA 98, TA 1535 and TA 1537 and tryptophan-less Escherichia coli WP2 uvrA were used (Japan Bioassay Research Center)) was further added thereto, followed by pre-incubation at 37° C. for 20 minutes while shaking. After completion of the culturing, 2.0 ml of top agar kept at 45° C. in advance was added thereto and layered on a minimum glucose agar plate medium. In this case, 2 plates were arranged for each dosage. However, 3 plates were arranged for a solvent control (negative control). […] In the measurement, an inner area of about 80 mm in diameter of a plate of 86 mm in diameter (84 mm in inner diameter) was measured using an automatic colony analyzer (CA-11: manufactured by System Science), and calculated by carrying out area correction and counting loss correction using a personal computer. However, since reliability of the automatic colony analyzer is reduced when the number of colonies is 1,500 or more, 5 points in the plate were manually measured under the stereoscopic microscope to carry out area correction of the average value. A dosage setting test was carried out on 7 dosages diluted at a common ratio of 4, using a dosage of 5,000 μg/plate as the maximum which is the maximum dosage defined by the guideline. […] Growth inhibition of the strains by this substance to be tested was not found. […] Thus, this test was carried out by setting 5 dosages diluted at a common ratio of 2, using a dosage of 5,000 μg/plate as the maximum which is the maximum dosage defined by the guideline.

[4] = test system: Salmonella typhimurium TA 98; test: Back mutation test, TA98; assay type: cell-based
Procedure: as §2

[5] = test system: Escherichia coli WP2 uvrA; test: Back mutation test, WP2uvrA; assay type: cell-based
Procedure: as §2

[6] = test system: Salmonella typhimurium TA 1535; settings: TA1535
Procedure: as §1

radish = test: Plant activating effect, foliar application, radish; assay type: in vivo; settings: 21 days, 12 seeds
Procedure: After 600 g of upland soil was packed in a porcelain pot of 12 cm in inner diameter, 12 grains of radish seeds were sowed therein, covered with 5 mm in depth of the soil and allowed to grow in a green house. Foliar application treatment was carried out once a day using the following application liquids. Conditions of the leaves 21 days thereafter were observed.

[7] = S9 Mix not required, 1.0 μg/plate
[8] = S9 Mix not required, 0.01 μg/plate
[9] = S9 Mix not required, 0.1 μg/plate
[10] = S9 Mix not required, 0.5 μg/plate

## COc1ccc2nc3cc(Cl)ccc3c(NCCCNCCCl)c2c1 [ICR-191, 6-chloro-9-[3-(2-chloroethylamine)-propylamino]-2-methoxyacridine dihydrochloride, reference compound]
[1]; [7]
  Positive control, number of back mutation, mean (in parentheses): (4001) Colonies/plate
  Positive control, number of back mutation, single plates: 4068 Colonies/plate and 3934 Colonies/plate
[1]; S9 Mix required, 2.0 μg/plate
  Positive control, number of back mutation, mean (in parentheses): (262) Colonies/plate
  Positive control, number of back mutation, single plates: 257 Colonies/plate and 267 Colonies/plate

## O=P(O)(O)O [sodium phosphate]
[2]; 1 ppm in tap water
  plants judged 0: Abnormality was not found on the leaf surface: 4 plants
  plants judged 1: A region discolored to yellow was found on the leaf surface: 3 plants
  plants judged 2: A necrotic region was found on the leaf surface: 5 plants
[2]; 10 ppm in tap water
  plants judged 0: Abnormality was not found on the leaf surface: 2 plants
  plants judged 1: A region discolored to yellow was found on the leaf surface: 4 plants
  plants judged 2: A necrotic region was found on the leaf surface: 6 plants
[2]; 100 ppm in tap water
  plants judged 0: Abnormality was not found on the leaf surface: 3 plants
  plants judged 1: A region discolored to yellow was found on the leaf surface: 2 plants
  plants judged 2: A necrotic region was found on the leaf surface: 7 plants

## NC(=O)C(=Cc1ccc([N+](=O)[O-])o1)c1ccco1 [AF-2, 2-(2-furyl)-3-(5-nitro-2-furyl)acrylamide, reference compound]
[3]; [8]
  Positive control, number of back mutation, mean (in parentheses): (572) Colonies/plate
  Positive control, number of back mutation, single plates: 564 Colonies/plate and 580 Colonies/plate
[3]; S9 Mix required, 1.0 μg/plate
  Positive control, number of back mutation, mean (in parentheses): (1230) Colonies/plate
  Positive control, number of back mutation, single plates: 1275 Colonies/plate and 1184 Colonies/plate
[4]; [9]
  Positive control, number of back mutation, mean (in parentheses): (568) Colonies/plate
  Positive control, number of back mutation, single plates: 575 Colonies/plate and 560 Colonies/plate
[4]; S9 Mix required, 0.5 μg/plate
  Positive control, number of back mutation, mean (in parentheses): (665) Colonies/plate
  Positive control, number of back mutation, single plates: 661 Colonies/plate and 668 Colonies/plate
[5]; [8]
  Positive control, number of back mutation, mean (in parentheses): (152) Colonies/plate
  Positive control, number of back mutation, single plates: 155 Colonies/plate and 149 Colonies/plate
[5]; S9 Mix required, 10.0 μg/plate
  Positive control, number of back mutation, mean (in parentheses): (1267) Colonies/plate
  Positive control, number of back mutation, single plates: 1230 Colonies/plate and 1304 Colonies/plate

## [N-]=[N+]=[N-] [NaN3, sodium azide, reference compound]
[6]; [10]
  Positive control, number of back mutation, mean (in parentheses): (210) Colonies/plate
  Positive control, number of back mutation, single plates: 203 Colonies/plate and 216 Colonies/plate
[6]; S9 Mix required, 2.0 μg/plate
  Positive control, number of back mutation, mean (in parentheses): (138) Colonies/plate
  Positive control, number of back mutation, single plates: 137 Colonies/plate and 138 Colonies/plate

## Cc1ccc(S(=O)(=O)O)cc1 [p-toluenesulfonic acid]
radish; 1 ppm in tap water
  plants judged 0: Abnormality was not found on the leaf surface: 1 plant^ plants
  plants judged 1: A region discolored to yellow was found on the leaf surface: 2 plants
  plants judged 2: A necrotic region was found on the leaf surface: 9 plants
radish; 10 ppm in tap water
  plants judged 0: Abnormality was not found on the leaf surface: 1 plant^ plants
  plants judged 1: A region discolored to yellow was found on the leaf surface: 2 plants
  plants judged 2: A necrotic region was found on the leaf surface: 9 plants
radish; 100 ppm in tap water
  plants judged 0: Abnormality was not found on the leaf surface: 0 plant^ plants
  plants judged 1: A region discolored to yellow was found on the leaf surface: 3 plants
  plants judged 2: A necrotic region was found on the leaf surface: 9 plants

## O=[N+]([O-])[O-].[Na+] [sodium nitrate]
radish; 1 ppm in tap water
  plants judged 0: Abnormality was not found on the leaf surface: 2 plants
  plants judged 1: A region discolored to yellow was found on the leaf surface: 6 plants
  plants judged 2: A necrotic region was found on the leaf surface: 4 plants
radish; 10 ppm in tap water
  plants judged 0: Abnormality was not found on the leaf surface: 2 plants
  plants judged 1: A region discolored to yellow was found on the leaf surface: 4 plants
  plants judged 2: A necrotic region was found on the leaf surface: 6 plants
radish; 100 ppm in tap water
  plants judged 0: Abnormality was not found on the leaf surface: 2 plants
  plants judged 1: A region discolored to yellow was found on the leaf surface: 5 plants
  plants judged 2: A necrotic region was found on the leaf surface: 5 plants

— patent US8471061B2 (priority 2004, dated 2013)
